According to ChEMBL document CHEMBL3297661, “1-Substituted-5-[(3,5-dinitrobenzyl)sulfanyl]-1H-tetrazoles and their isosteric analogs: A new class of selective antitubercular agents active against drug-susceptible and multidrug-resistant mycobacteria” (Eur J Med Chem, 2014):

How the values were obtained:
Candida tropicalis [1] = test: Antifungal activity against Candida tropicalis 156 after 24 hrs by broth microdilution method; type: functional; conditions: Candida tropicalis, 156, 24 h
Mycobacterium kansasii [2] = test: Antimycobacterial activity against Mycobacterium kansasii 6509/96 after 21 days by micromethod; type: functional; conditions: 6509/96, 504 h
[3] = system: Staphylococcus epidermidis; test: Antibacterial activity against Staphylococcus epidermidis H 6966/08 after 24 hrs by broth microdilution method; type: functional; conditions: H 6966/08, 24 h
Aspergillus fumigatus [4] = test: Antifungal activity against Aspergillus fumigatus 231 after 24 hrs by broth microdilution method; type: functional, organism-based; conditions: Aspergillus fumigatus, 231, 24 h
Escherichia coli [5] = test: Antibacterial activity against Escherichia coli ATCC 8739 after 24 hrs by broth microdilution method; type: functional; conditions: ATCC 8739, ATCC 8739, 24 h
Trichosporon asahii [6] = test: Antifungal activity against Trichosporon asahii 1188 after 48 hrs by broth microdilution method; type: functional; conditions: Trichosporon asahii, 1188, 48 h
Aspergillus fumigatus [7] = test: Antifungal activity against Aspergillus fumigatus 231 after 48 hrs by broth microdilution method; type: functional, organism-based; conditions: Aspergillus fumigatus, 231, 48 h
Klebsiella pneumoniae [8] = test: Antibacterial activity against extended spectrum beta-lactamase producing Klebsiella pneumoniae J 14368/08 after 48 hrs by broth microdilution method; type: functional; conditions: J 14368/08, 48 h
[9] = Cytotoxicity against human HuH7 cells assessed as reduction in cell viability after 48 hrs by MTT assay; type: cell-based; conditions: Huh-7, 48 h
Enterococcus faecalis [10] = test: Antibacterial activity against Enterococcus faecalis J 14365/08 after 24 hrs by broth microdilution method; type: functional; conditions: J 14365/08, 24 h
Staphylococcus aureus [11] = test: Antibacterial activity against Staphylococcus aureus ATCC 6538 after 24 hrs by broth microdilution method; type: functional; conditions: ATCC 6538, 24 h
[12] = system: Staphylococcus epidermidis; test: Antibacterial activity against Staphylococcus epidermidis H 6966/08 after 48 hrs by broth microdilution method; type: functional; conditions: H 6966/08, 48 h
Escherichia coli [13] = test: Antibacterial activity against Escherichia coli ATCC 8739 after 48 hrs by broth microdilution method; type: functional; conditions: ATCC 8739, ATCC 8739, 48 h
Mycobacterium avium [14] = test: Antimycobacterial activity against Mycobacterium avium CNCTC My 330/88 after 21 days by micromethod; type: functional; conditions: CNCTC My 330/88, 504 h
Trichosporon asahii [15] = test: Antifungal activity against Trichosporon asahii 1188 after 24 hrs by broth microdilution method; type: functional; conditions: Trichosporon asahii, 1188, 24 h
Lichtheimia corymbifera [16] = test: Antifungal activity against Absidia corymbifera 272 after 24 hrs by broth microdilution method; type: functional, organism-based; conditions: Lichtheimia corymbifera, 272, 24 h
Pseudomonas aeruginosa [17] = test: Antibacterial activity against Pseudomonas aeruginosa ATCC 9027 after 24 hrs by broth microdilution method; type: functional; conditions: ATCC 9027, 24 h
Pseudomonas aeruginosa [18] = test: Antibacterial activity against Pseudomonas aeruginosa ATCC 9027 after 48 hrs by broth microdilution method; type: functional; conditions: ATCC 9027, 48 h
Mycobacterium kansasii [19] = test: Antimycobacterial activity against Mycobacterium kansasii CNCTC My 235/80 after 14 days by micromethod; type: functional; conditions: CNCTC My 235/80, 336 h
Staphylococcus aureus [20] = test: Antibacterial activity against methicillin-resistant Staphylococcus aureus H 5996/08 after 24 hrs by broth microdilution method; type: functional; conditions: H 5996/08, 24 h
Mycobacterium kansasii [21] = test: Antimycobacterial activity against Mycobacterium kansasii CNCTC My 235/80 after 7 days by micromethod; type: functional; conditions: CNCTC My 235/80, 168 h
Nakaseomyces glabratus [22] = test: Antifungal activity against Candida glabrata 20/I after 24 hrs by broth microdilution method; type: functional
HepG2 = test: Cytotoxicity against human HepG2 cells assessed as reduction in cell viability after 48 hrs by MTT assay; type: cell-based; conditions: HepG2, 48 h
Klebsiella pneumoniae [23] = test: Antibacterial activity against extended spectrum beta-lactamase producing Klebsiella pneumoniae J 14368/08 after 24 hrs by broth microdilution method; type: functional; conditions: J 14368/08, 24 h
[24] = Cytotoxicity against MDCK2 cells assessed as cell viability at 30 uM after 48 hrs by MTT assay; type: cell-based, Canis lupus familiaris, MDCK-II; conditions: dog, read-out: Activity
[25] = system: Mycobacterium tuberculosis; test: Antimycobacterial activity against Mycobacterium tuberculosis CNCTC My 331/88 after 21 days by micromethod; type: functional; conditions: CNCTC My 331/88, 504 h
Candida albicans [26] = test: Antifungal activity against Candida albicans ATCC 44859 after 48 hrs by broth microdilution method; type: functional; conditions: ATCC 44859, 48 h
Klebsiella pneumoniae [27] = test: Antibacterial activity against Klebsiella pneumoniae D 11750/08 after 48 hrs by broth microdilution method; type: functional; conditions: D 11750/08, 48 h
Candida albicans [28] = test: Antifungal activity against Candida albicans ATCC 44859 after 24 hrs by broth microdilution method; type: functional; conditions: ATCC 44859, 24 h
HeLa = test: Cytotoxicity against human HeLa cells assessed as reduction in cell viability after 48 hrs by MTT assay; type: cell-based
Pichia kudriavzevii [29] = test: Antifungal activity against Candida krusei E28 after 48 hrs by broth microdilution method; type: functional; conditions: E28, 48 h
Staphylococcus aureus [30] = test: Antibacterial activity against Staphylococcus aureus ATCC 6538 after 48 hrs by broth microdilution method; type: functional; conditions: ATCC 6538, 48 h
Pichia kudriavzevii [31] = test: Antifungal activity against Candida krusei E28 after 24 hrs by broth microdilution method; type: functional; conditions: E28, 24 h
[32] = system: Mycobacterium tuberculosis; test: Antimycobacterial activity against Mycobacterium tuberculosis CNCTC My 331/88 after 14 days by micromethod; type: functional; conditions: CNCTC My 331/88, 336 h
Mycobacterium kansasii [33] = test: Antimycobacterial activity against Mycobacterium kansasii 6509/96 after 14 days by micromethod; type: functional; conditions: 6509/96, 336 h
Mycobacterium kansasii [34] = test: Antimycobacterial activity against Mycobacterium kansasii CNCTC My 235/80 after 21 days by micromethod; type: functional; conditions: CNCTC My 235/80, 504 h
Nakaseomyces glabratus [35] = test: Antifungal activity against Candida glabrata 20/I after 48 hrs by broth microdilution method; type: functional
Staphylococcus aureus [36] = test: Antibacterial activity against methicillin-resistant Staphylococcus aureus H 5996/08 after 48 hrs by broth microdilution method; type: functional; conditions: H 5996/08, 48 h
Enterococcus faecalis [37] = test: Antibacterial activity against Enterococcus faecalis J 14365/08 after 48 hrs by broth microdilution method; type: functional; conditions: J 14365/08, 48 h
[38] = Cytotoxicity against human HuH7 cells assessed as cell viability at 30 uM after 48 hrs by MTT assay; type: cell-based, Huh-7; conditions: read-out: Activity
[39] = system: Trichophyton mentagrophytes; test: Antifungal activity against Trichophyton mentagrophytes 445 after 72 hrs by broth microdilution method; type: functional, organism-based; conditions: Trichophyton mentagrophytes, 445, 72 h
[40] = Cytotoxicity against human HeLa cells assessed as cell viability at 30 uM after 48 hrs by MTT assay; type: cell-based; conditions: read-out: Activity
[41] = Cytotoxicity against MDCK2 cells assessed as reduction in cell viability after 48 hrs by MTT assay; type: cell-based; conditions: Canis lupus familiaris, MDCK-II
[42] = Cytotoxicity against human HepG2 cells assessed as cell viability at 30 uM after 48 hrs by MTT assay; type: cell-based; conditions: read-out: Activity
Mycobacterium kansasii [43] = test: Antimycobacterial activity against Mycobacterium kansasii 6509/96 after 7 days by micromethod; type: functional; conditions: 6509/96, 168 h
Mycobacterium avium [44] = test: Antimycobacterial activity against Mycobacterium avium CNCTC My 330/88 after 14 days by micromethod; type: functional; conditions: CNCTC My 330/88, 336 h
Lichtheimia corymbifera [45] = test: Antifungal activity against Absidia corymbifera 272 after 48 hrs by broth microdilution method; type: functional, organism-based; conditions: Lichtheimia corymbifera, 272, 48 h
[46] = system: Trichophyton mentagrophytes; test: Antifungal activity against Trichophyton mentagrophytes 445 after 120 hrs by broth microdilution method; type: functional, organism-based; conditions: Trichophyton mentagrophytes, 445, 120 h
Klebsiella pneumoniae [47] = test: Antibacterial activity against Klebsiella pneumoniae D 11750/08 after 24 hrs by broth microdilution method; type: functional; conditions: D 11750/08, 24 h
Candida tropicalis [48] = test: Antifungal activity against Candida tropicalis 156 after 48 hrs by broth microdilution method; type: functional; conditions: Candida tropicalis, 156, 48 h

O=[N+]([O-])c1cc(CSc2nnnn2C2CCCCC2)cc([N+](=O)[O-])c1
> 500 µM: IC80 (Candida tropicalis [1]) | IC95 [3] | IC50 (Aspergillus fumigatus [4]) | IC95 (Escherichia coli [5]) | IC80 (Trichosporon asahii [6]) | IC50 (Aspergillus fumigatus [7]) | IC95 (Klebsiella pneumoniae [8]) | IC95 (Enterococcus faecalis [10]) | IC95 (Staphylococcus aureus [11]) | IC95 [12] | IC95 (Escherichia coli [13]) | IC80 (Trichosporon asahii [15]) | IC50 (Lichtheimia corymbifera [16]) | IC95 (Pseudomonas aeruginosa [17]) | IC95 (Pseudomonas aeruginosa [18]) | IC95 (Staphylococcus aureus [20]) | IC80 (Nakaseomyces glabratus [22]) | IC95 (Klebsiella pneumoniae [23]) | IC80 (Candida albicans [26]) | IC95 (Klebsiella pneumoniae [27]) | IC80 (Candida albicans [28]) | IC80 (Pichia kudriavzevii [29]) | IC95 (Staphylococcus aureus [30]) | IC80 (Pichia kudriavzevii [31]) | IC80 (Nakaseomyces glabratus [35]) | IC95 (Staphylococcus aureus [36]) | IC95 (Enterococcus faecalis [37]) | IC50 [39] | IC50 (Lichtheimia corymbifera [45]) | IC50 [46] | IC95 (Klebsiella pneumoniae [47]) | IC80 (Candida tropicalis [48])
1 µM: MIC [25] | MIC [32]
> 30 µM: IC50 [9] | IC50 (HepG2) | IC50 (HeLa) | IC50 [41]
4 µM: MIC (Mycobacterium kansasii [2]) | MIC (Mycobacterium kansasii [19]) | MIC (Mycobacterium kansasii [21]) | MIC (Mycobacterium kansasii [34])
128%: viability at 48 h, 30 µM [38]
2 µM: MIC (Mycobacterium kansasii [33]) | MIC (Mycobacterium kansasii [43])
84%: viability at 48 h, 30 µM [40]
98%: viability at 48 h, 30 µM [24]
16 µM: MIC (Mycobacterium avium [44])
32 µM: MIC (Mycobacterium avium [14])
88%: viability at 48 h, 30 µM [42]

O=[N+]([O-])c1cc(C[Se]c2nnnn2C2CCCCC2)cc([N+](=O)[O-])c1
7%: viability at 48 h, 30 µM [24]
4 µM: MIC (Mycobacterium kansasii [2]) | MIC (Mycobacterium kansasii [33])
87%: viability at 48 h, 30 µM [42]
1 µM: MIC (Mycobacterium kansasii [19]) | MIC (Mycobacterium kansasii [21]) | MIC [32]
32 µM: MIC (Mycobacterium avium [14]) | MIC (Mycobacterium avium [44])
125%: viability at 48 h, 30 µM [38]
> 500 µM: IC80 (Candida tropicalis [1]) | IC95 [3] | IC50 (Aspergillus fumigatus [4]) | IC95 (Escherichia coli [5]) | IC80 (Trichosporon asahii [6]) | IC50 (Aspergillus fumigatus [7]) | IC95 (Klebsiella pneumoniae [8]) | IC95 (Enterococcus faecalis [10]) | IC95 (Staphylococcus aureus [11]) | IC95 [12] | IC95 (Escherichia coli [13]) | IC80 (Trichosporon asahii [15]) | IC50 (Lichtheimia corymbifera [16]) | IC95 (Pseudomonas aeruginosa [17]) | IC95 (Pseudomonas aeruginosa [18]) | IC95 (Staphylococcus aureus [20]) | IC80 (Nakaseomyces glabratus [22]) | IC95 (Klebsiella pneumoniae [23]) | IC80 (Candida albicans [26]) | IC95 (Klebsiella pneumoniae [27]) | IC80 (Candida albicans [28]) | IC80 (Pichia kudriavzevii [29]) | IC95 (Staphylococcus aureus [30]) | IC80 (Pichia kudriavzevii [31]) | IC80 (Nakaseomyces glabratus [35]) | IC95 (Staphylococcus aureus [36]) | IC95 (Enterococcus faecalis [37]) | IC50 [39] | IC50 (Lichtheimia corymbifera [45]) | IC50 [46] | IC95 (Klebsiella pneumoniae [47]) | IC80 (Candida tropicalis [48])
> 30 µM: IC50 [9] | IC50 (HepG2) | IC50 (HeLa)
66%: viability at 48 h, 30 µM [40]
19 µM: IC50 [41]
2 µM: MIC [25] | MIC (Mycobacterium kansasii [34]) | MIC (Mycobacterium kansasii [43])
